Laboratory results from patent publication EP0009776A1, “N-monohydroxypropylamides, N-dihydroxypropylamides and their acetonoides of all-E and 13-Z retinoic acid, process for their preparation and pharmaceutical compositions containing them” (BASF Aktiengesellschaft, priority 1978, dated 1980).

Tested on: Hamster-Tracheen-Gewebe
Experiment: Reversal of keratinization induced by vitamin A deficiency in hamster tracheal tissue (method of Clamon et al. / Sporn et al.)
Assay type: cell-based
Conditions: in 10^-8 molarer Lösung
Source text: Die erfindungsgemäßen Verbindungen sind in ihrer biologischen Aktivität den bekannten Retinsäureamiden der DE-OS 21 02 586 in etwa vergleichbar. Beispielsweise hebsowohl Retinsäure-N-(ß-hydroxy)-ethylamid als auch die erfindungsgemäßen Retinoide die durch Vitamin A-Hypovitamines induzierte Keratinisierung von Hamster-Tracheen-Gewebe noch in 10^-8 molarer Lösung vollständig auf. Die Methodik hierzu kann G.H. CLAMON et al Nature 250, 64 - 66 (1974) oder M.B. SPORN et al Nature 253, 47 - 50 (1975) entnommen werden. Die Keratinisierung wird als praekanzerotischer Prozes angesehen.

CC1=C(/C=C/C(C)=C/C=C/C(C)=C/C(=O)NCCO)C(C)(C)CCC1 [Retinsäure-N-(ß-hydroxy)-ethylamid]
Aufhebung der durch Vitamin A-Hypovitamines induzierten Keratinisierung von Hamster-Tracheen-Gewebe: vollständig
